Assay results from PubChem BioAssay AID1259407 (Chemical Carcinogenesis Research Information System (CCRIS), 2018).
Calls of active or inactive are those of the source. The rule behind the calls is not given here.

Tested on: CCRIS mutagenicity, Ames/micronucleus/aberration tests
Test: CCRIS mutagenicity studies
[1] = Test System: AMES SALMONELLA TYPHIMURIUM, Strain/Indicator: TA98, Metabolic Activation: HAMSTER, LIVER, S-9, AROCLOR 1254 (10%), Method: PREINCUBATION
[2] = Test System: AMES SALMONELLA TYPHIMURIUM, Strain/Indicator: TA98, Metabolic Activation: NONE, Method: PREINCUBATION
[3] = Test System: AMES SALMONELLA TYPHIMURIUM, Strain/Indicator: TA98, Metabolic Activation: RAT, LIVER, S-9, AROCLOR 1254 (10%), Method: PREINCUBATION
[4] = Test System: AMES SALMONELLA TYPHIMURIUM, Strain/Indicator: TA100, Metabolic Activation: HAMSTER, LIVER, S-9, AROCLOR 1254 (10%), Method: PREINCUBATION
[5] = Test System: AMES SALMONELLA TYPHIMURIUM, Strain/Indicator: TA100, Metabolic Activation: NONE, Method: PREINCUBATION
[6] = Test System: AMES SALMONELLA TYPHIMURIUM, Strain/Indicator: TA100, Metabolic Activation: RAT, LIVER, S-9, AROCLOR 1254 (10%), Method: PREINCUBATION
[7] = Test System: AMES SALMONELLA TYPHIMURIUM, Strain/Indicator: TA1535, Metabolic Activation: HAMSTER, LIVER, S-9, AROCLOR 1254 (10%), Method: PREINCUBATION
[8] = Test System: AMES SALMONELLA TYPHIMURIUM, Strain/Indicator: TA1535, Metabolic Activation: NONE, Method: PREINCUBATION
[9] = Test System: AMES SALMONELLA TYPHIMURIUM, Strain/Indicator: TA1535, Metabolic Activation: RAT, LIVER, S-9, AROCLOR 1254 (10%), Method: PREINCUBATION
[10] = Test System: AMES SALMONELLA TYPHIMURIUM, Strain/Indicator: TA1537, Metabolic Activation: HAMSTER, LIVER, S-9, AROCLOR 1254 (10%), Method: PREINCUBATION
[11] = Test System: AMES SALMONELLA TYPHIMURIUM, Strain/Indicator: TA1537, Metabolic Activation: NONE, Method: PREINCUBATION
[12] = Test System: AMES SALMONELLA TYPHIMURIUM, Strain/Indicator: TA1537, Metabolic Activation: RAT, LIVER, S-9, AROCLOR 1254 (10%), Method: PREINCUBATION
[13] = Test System: AMES SALMONELLA TYPHIMURIUM, Strain/Indicator: TA98, Metabolic Activation: NONE, Method: STANDARD PLATE
[14] = Test System: AMES SALMONELLA TYPHIMURIUM, Strain/Indicator: TA100, Metabolic Activation: NONE, Method: STANDARD PLATE
[15] = Test System: AMES SALMONELLA TYPHIMURIUM, Strain/Indicator: TA102, Metabolic Activation: NONE, Method: STANDARD PLATE

For `Cc1ccc2c(ccc3c4ccccc4ccc23)c1`, the mutagenic call (Test System: AMES SALMONELLA TYPHIMURIUM, Strain/Indicator: TA98, Metabolic Activation: RAT, LIVER, CYTOSOL, AROCLOR 1254, Method: STANDARD PLATE) was “inactive; negative”, the mutagenic call (Test System: AMES SALMONELLA TYPHIMURIUM, Strain/Indicator: TA98, Metabolic Activation: RAT, LIVER, MICROSOMES, AROCLOR 1254, Method: STANDARD PLATE) was “inactive; negative” and the mutagenic call (Test System: AMES SALMONELLA TYPHIMURIUM, Strain/Indicator: TA100, Metabolic Activation: RAT, LIVER, MICROSOMES, 2-METHYLCHRYSENE, Method: STANDARD PLATE) was “inactive; negative”. For the same compound, the mutagenic call (Test System: AMES SALMONELLA TYPHIMURIUM, Strain/Indicator: TA100, Metabolic Activation: RAT, LIVER, MICROSOMES, AROCLOR 1254, Method: STANDARD PLATE) was “active; positive” and the mutagenic call (Test System: AMES SALMONELLA TYPHIMURIUM, Strain/Indicator: TA100, Metabolic Activation: RAT, LIVER, MICROSOMES, Method: STANDARD PLATE) was “inactive; negative”.

`CC(C)(C)N` was tested, and the mutagenic call [1] was “inactive; negative”, the mutagenic call [2] was “inactive; negative” and the mutagenic call (Test System: AMES SALMONELLA TYPHIMURIUM, Strain/Indicator: TA98, Metabolic Activation: RAT LIVER S-9, PHENOBARBITAL AND BETA-NAPHTHOFLAVONE, Method: PREINCUBATION) was “inactive; negative”. The mutagenic call [3] was “inactive; negative”, the mutagenic call [4] was “inactive; negative” and the mutagenic call [5] was “inactive; negative”. For the same compound, the mutagenic call (Test System: AMES SALMONELLA TYPHIMURIUM, Strain/Indicator: TA100, Metabolic Activation: RAT LIVER S-9, PHENOBARBITAL AND BETA-NAPHTHOFLAVONE, Method: PREINCUBATION) was “inactive; negative”, the mutagenic call [6] was “inactive; negative” and the mutagenic call [7] was “inactive; negative”. For the same compound, the mutagenic call [8] was “inactive; negative”, the mutagenic call (Test System: AMES SALMONELLA TYPHIMURIUM, Strain/Indicator: TA1535, Metabolic Activation: RAT LIVER S-9, PHENOBARBITAL AND BETA-NAPHTHOFLAVONE, Method: PREINCUBATION) was “inactive; negative” and the mutagenic call [9] was “inactive; negative”. The mutagenic call [10] was “inactive; negative”, the mutagenic call [11] was “inactive; negative” and the mutagenic call (Test System: AMES SALMONELLA TYPHIMURIUM, Strain/Indicator: TA1537, Metabolic Activation: RAT LIVER S-9, PHENOBARBITAL AND BETA-NAPHTHOFLAVONE, Method: PREINCUBATION) was “inactive; negative”. For the same compound, the mutagenic call [12] was “inactive; negative”, the mutagenic call (Test System: E.COLI, Strain/Indicator: WP2UVRA/PKM101, Metabolic Activation: NONE, Method: PREINCUBATION) was “inactive; negative” and the mutagenic call (Test System: E.COLI, Strain/Indicator: WP2UVRA/PKM101, Metabolic Activation: RAT LIVER S-9, PHENOBARBITAL AND BETA-NAPHTHOFLAVONE, Method: PREINCUBATION) was “inactive; negative”.

`O=C1CCCN1c1ncc([N+](=O)[O-])s1` was tested, and the mutagenic call [13] was “active; positive” and the mutagenic call [14] was “inactive; negative”.

For `O=C1NC(=S)NC(=O)C1C(=O)Nc1ccccc1`, the mutagenic call [15] was “inactive; negative”, the mutagenic call (Test System: CHINESE HAMSTER V-79, Strain/Indicator: V-79 (HPRT)/6-THIOGUANINE, Metabolic Activation: NONE) was “inactive; negative” and the mutagenic call (Test System: MOUSE LYMPHOMA, Strain/Indicator: L5178Y (HPRT)/6-THIOGUANINE, Metabolic Activation: NONE, Method: FLUCTUATION TEST) was “active; positive”. For the same compound, the mutagenic call (Test System: MOUSE LYMPHOMA, Strain/Indicator: L5178Y (TK+/TK-), Metabolic Activation: NONE, Method: FLUCTUATION TEST) was “active; positive”.

In the case of `CN(C)C(=O)c1nc(CNC(=O)CN)n(-c2ccc(Cl)cc2C(=O)c2ccccc2Cl)n1`, the mutagenic call [13] is reported as “inactive; negative”, the mutagenic call (Test System: AMES SALMONELLA TYPHIMURIUM, Strain/Indicator: TA98, Metabolic Activation: RAT, LIVER, S-9, AROCLOR 1254, Method: STANDARD PLATE) is reported as “inactive; negative” and the mutagenic call [14] is reported as “inactive; negative”. The mutagenic call (Test System: AMES SALMONELLA TYPHIMURIUM, Strain/Indicator: TA100, Metabolic Activation: RAT, LIVER, S-9, AROCLOR 1254, Method: STANDARD PLATE) was “inactive; negative”, the mutagenic call [15] was “inactive; negative” and the mutagenic call (Test System: AMES SALMONELLA TYPHIMURIUM, Strain/Indicator: TA102, Metabolic Activation: RAT, LIVER, S-9, AROCLOR 1254, Method: STANDARD PLATE) was “inactive; negative”. For the same compound, the mutagenic call (Test System: AMES SALMONELLA TYPHIMURIUM, Strain/Indicator: TA1535, Metabolic Activation: NONE, Method: STANDARD PLATE) was “inactive; negative”, the mutagenic call (Test System: AMES SALMONELLA TYPHIMURIUM, Strain/Indicator: TA1535, Metabolic Activation: RAT, LIVER, S-9, AROCLOR 1254, Method: STANDARD PLATE) was “inactive; negative” and the mutagenic call (Test System: AMES SALMONELLA TYPHIMURIUM, Strain/Indicator: TA1537, Metabolic Activation: NONE, Method: STANDARD PLATE) was “inactive; negative”. For the same compound, the mutagenic call (Test System: AMES SALMONELLA TYPHIMURIUM, Strain/Indicator: TA1537, Metabolic Activation: RAT, LIVER, S-9, AROCLOR 1254, Method: STANDARD PLATE) was “inactive; negative”, the mutagenic call (Test System: E. COLI, Strain/Indicator: WP2 UVRA, Metabolic Activation: NONE, Method: STANDARD PLATE) was “inactive; negative” and the mutagenic call (Test System: E. COLI, Strain/Indicator: WP2 UVRA, Metabolic Activation: RAT, LIVER, S-9, AROCLOR 1254, Method: STANDARD PLATE) was “inactive; negative”.

For `O=C(Nc1cccc2c(=O)c3c(ccc4c5cc(NC(=O)c6ccccc6)c6c(=O)c7ccccc7c(=O)c6c5[nH]c43)c(=O)c12)c1ccccc1`, the mutagenic call [1] was “inactive; negative”, the mutagenic call [2] was “inactive; negative” and the mutagenic call [3] was “inactive; negative”. The mutagenic call [4] was “inactive; negative”, the mutagenic call [5] was “inactive; negative” and the mutagenic call [6] was “inactive; negative”. For the same compound, the mutagenic call [7] was “inactive; negative”, the mutagenic call [8] was “inactive; negative” and the mutagenic call [9] was “inactive; negative”. For the same compound, the mutagenic call [10] was “inactive; negative”, the mutagenic call [11] was “inactive; negative” and the mutagenic call [12] was “inactive; negative”. For the same compound, the mutagenic call (Test System: Ames Salmonella typhimurium, Strain/Indicator: TA98, Metabolic Activation: None, Method: Preincubation) was “active; positive”, the mutagenic call (Test System: Ames Salmonella typhimurium, Strain/Indicator: TA100, Metabolic Activation: None, Method: Preincubation) was “inactive; negative” and the mutagenic call (Test System: Ames Salmonella typhimurium, Strain/Indicator: TA102, Metabolic Activation: None, Method: Preincubation) was “inactive; negative”. The mutagenic call (Test System: Ames Salmonella typhimurium, Strain/Indicator: TA1535, Metabolic Activation: None, Method: Preincubation) was “inactive; negative”.

`O=C(OCC1CO1)c1cccc(C(=O)OCC2CO2)c1` (centres undefined) was tested, and the mutagenic call (Test System: AMES SALMONELLA TYPHIMURIUM, Strain/Indicator: TA97, Metabolic Activation: HAMSTER, LIVER, S-9, AROCLOR 1254 (10%), Method: PREINCUBATION) was “inactive; negative”, the mutagenic call (Test System: AMES SALMONELLA TYPHIMURIUM, Strain/Indicator: TA97, Metabolic Activation: NONE, Method: PREINCUBATION) was “active; positive” and the mutagenic call (Test System: AMES SALMONELLA TYPHIMURIUM, Strain/Indicator: TA97, Metabolic Activation: RAT, LIVER, S-9, AROCLOR 1254 (10%), Method: PREINCUBATION) was “inactive; negative”. For the same compound, the mutagenic call [1] was “inactive; negative”, the mutagenic call [2] was “inactive; negative” and the mutagenic call [3] was “inactive; negative”. For the same compound, the mutagenic call [4] was “active; positive”, the mutagenic call [5] was “active; positive” and the mutagenic call [6] was “active; positive”. The mutagenic call [7] was “active; positive”, the mutagenic call [8] was “active; positive” and the mutagenic call [9] was “active; positive”.
